Source: ChEMBL document CHEMBL6096689, “Structure-Guided Development of ClpP Agonists with Potent Therapeutic Activities against Staphylococcus aureus Infection” (J Med Chem, 2025)
≈ marks a conversion by molar mass, not a printed value. Calls of active or inactive are those of the source. The rule behind the calls is not given here.

Experiments:
[1] = target: T1, ATP-dependent Clp protease proteolytic subunit (Staphylococcus aureus (strain NCTC 8325), UniProt Q2G036); assay: Agonist activity at Staphylococcus aureus ClpP extracted from Escherichia coli BL21 (DE3) cells using alpha-casein as substrate assessed as substrate hydrolysis preincubated for 15 mins followed by substrate addition and measured after 2 hrs by SDS-PAGE analysis
T1 sequence (Q2G036 whole entry): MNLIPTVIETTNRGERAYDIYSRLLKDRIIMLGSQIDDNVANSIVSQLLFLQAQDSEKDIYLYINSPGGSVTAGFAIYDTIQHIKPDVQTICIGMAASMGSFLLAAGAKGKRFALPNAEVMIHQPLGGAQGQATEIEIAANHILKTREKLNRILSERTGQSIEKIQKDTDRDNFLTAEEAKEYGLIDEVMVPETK

Staphylococcus aureus [2] = assay: microbe, parasite or virus in culture; assay type: functional; details: Newman, time 18 hrs
Description: Antibacterial activity against Staphylococcus aureus Newman assessed as inhibition of visible growth of bacteria incubated for 18 hrs by absorbance based analysis

[3] = Octanol/water partition coefficient, log P of the compound at pH 7.4 incubated for 24 hrs by LC-MS analysis; assay type: physicochemical
Staphylococcus aureus [4] = assay: microbe, parasite or virus in culture; assay type: functional; details: time 18 hrs
Description: Antibacterial activity against multidrug-resistant Staphylococcus aureus clinical isolate XJ009 assessed as inhibition of visible growth of bacteria incubated for 18 hrs by absorbance based analysis

Staphylococcus aureus [5] = assay: microbe, parasite or virus in culture; assay type: functional; details: time 18 hrs; remark: listed apart in the source
Description: Antibacterial activity against multidrug-resistant Staphylococcus aureus clinical isolate XJ051 assessed as inhibition of visible growth of bacteria incubated for 18 hrs by absorbance based analysis

Staphylococcus aureus [6] = assay: microbe, parasite or virus in culture; assay type: functional; details: time 18 hrs; remark: listed apart in the source
Description: Antibacterial activity against multidrug-resistant Staphylococcus aureus clinical isolate XJ052 assessed as inhibition of visible growth of bacteria incubated for 18 hrs by absorbance based analysis

Staphylococcus aureus [7] = assay: microbe, parasite or virus in culture; assay type: functional; details: NRS-70, time 18 hrs
Description: Antibacterial activity against methicillin-resistant Staphylococcus aureus NRS-70 assessed as inhibition of visible growth of bacteria incubated for 18 hrs by absorbance based analysis

Staphylococcus aureus [8] = assay: microbe, parasite or virus in culture; assay type: functional; details: NRS-108, time 18 hrs
Description: Antibacterial activity against methicillin-resistant Staphylococcus aureus NRS-108 assessed as inhibition of visible growth of bacteria incubated for 18 hrs by absorbance based analysis

Staphylococcus aureus [9] = assay: microbe, parasite or virus in culture; assay type: functional; details: time 18 hrs; remark: listed apart in the source
Description: Antibacterial activity against multidrug-resistant Staphylococcus aureus clinical isolate XJ025 assessed as inhibition of visible growth of bacteria incubated for 18 hrs by absorbance based analysis

Staphylococcus aureus [10] = assay: microbe, parasite or virus in culture; assay type: functional; details: USA300, time 18 hrs
Description: Antibacterial activity against methicillin-resistant Staphylococcus aureus USA300 assessed as inhibition of visible growth of bacteria incubated for 18 hrs by absorbance based analysis

Staphylococcus aureus [11] = assay: microbe, parasite or virus in culture; assay type: functional; details: time 18 hrs; remark: listed apart in the source
Description: Antibacterial activity against multidrug-resistant Staphylococcus aureus clinical isolate XJ049 assessed as inhibition of visible growth of bacteria incubated for 18 hrs by absorbance based analysis

Staphylococcus aureus [12] = assay: microbe, parasite or virus in culture; assay type: functional; details: NRS-271, time 18 hrs
Description: Antibacterial activity against methicillin-resistant Staphylococcus aureus NRS-271 assessed as inhibition of visible growth of bacteria incubated for 18 hrs by absorbance based analysis

Staphylococcus aureus [13] = assay: microbe, parasite or virus in culture; assay type: functional; details: NRS-1, time 18 hrs
Description: Antibacterial activity against methicillin-resistant Staphylococcus aureus NRS-1 assessed as inhibition of visible growth of bacteria incubated for 18 hrs by absorbance based analysis

Staphylococcus aureus [14] = assay: Antibacterial activity against oxacillin-resistant Staphylococcus aureus clinical isolate XJ049 infected in female ICR mouse peritonitis model assessed as mouse survival at 50 mg/kg, ip pre-infected for 1 hrs followed by compound addition and measured after 5 days relative to control; assay type: functional; details: 120 h, time 5 day
[15] = Cytotoxicity against HEK293T/17 cells by MTT assay; assay type: toxicity, cell-based; details: human
[16] = Therapeutic index, ratio of IC50 for HEK293T/17 cells to MIC for methicillin resistant Staphylococcus aureus NRS 119; assay type: toxicity, cell-based; details: human, read-out: TI
Staphylococcus aureus [17] = assay: Antibacterial activity against methicillin resistant Staphylococcus aureus NRS 119 by CLSI protocol based broth microdilution method; assay type: functional
[18] = Therapeutic index, ratio of IC50 for HEK293T/17 cells to MIC for Staphylococcus aureus Newman; assay type: toxicity, cell-based; details: human, read-out: TI
[19] = target: T2, ATP-dependent Clp protease proteolytic subunit, mitochondrial (Homo sapiens, UniProt Q16740); assay: Induction of thermal stabilization of human ClpP extracted from Escherichia coli Rosetta (DE3) cells assessed as change in melting temperature at 10 uM incubated for 10 mins by DSF analysis
T2 sequence (Q16740 whole entry): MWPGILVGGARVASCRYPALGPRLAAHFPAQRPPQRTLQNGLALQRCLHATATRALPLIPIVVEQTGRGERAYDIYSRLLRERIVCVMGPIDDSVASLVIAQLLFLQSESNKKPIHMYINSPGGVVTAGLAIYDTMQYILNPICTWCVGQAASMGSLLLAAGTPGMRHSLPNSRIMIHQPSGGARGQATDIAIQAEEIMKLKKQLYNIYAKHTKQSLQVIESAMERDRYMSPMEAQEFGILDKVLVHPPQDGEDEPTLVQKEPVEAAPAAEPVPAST

[20] = Therapeutic index, ratio of IC50 for human ARH-77 cells to MIC for Staphylococcus aureus Newman; assay type: toxicity, cell-based; details: read-out: TI
[21] = target: T1, ATP-dependent Clp protease proteolytic subunit; assay: Agonist activity at Staphylococcus aureus ClpP extracted from Escherichia coli BL21 (DE3) cells using FITC-casein as substrate assessed as substrate hydrolysis preincubated for 60 mins followed by substrate addition and measured after 1 hrs by fluorescence based analysis
Staphylococcus aureus [22] = assay: Antibacterial activity against Staphylococcus aureus USA300 infected in Zebrafish infection model assessed as increase in zebrafish survival at 5 to 25 mg/kg pre-infected for 1 hrs followed by compound addition and measured after 5 days; assay type: functional, organism-based; details: dose 5-25 mg/kg, time 5.0 day
[23] = Agonist activity at Lactobacillus acidophilus ClpP using alpha-casein as substrate assessed as substrate hydrolysis preincubated for 15 mins followed by substrate addition and measured after 2 hrs by SDS-PAGE analysis
[24] = Therapeutic index, ratio of IC50 for HK-2 cells to MIC for Staphylococcus aureus Newman; assay type: toxicity, cell-based; details: human, read-out: TI
[25] = target: T2, ATP-dependent Clp protease proteolytic subunit, mitochondrial; assay: Agonist activity at human ClpP extracted from Escherichia coli Rosetta (DE3) cells using alpha-casein as substrate assessed as substrate hydrolysis preincubated for 15 mins followed by substrate addition and measured after 2 hrs by SDS-PAGE analysis
[26] = target: ATP-dependent Clp protease proteolytic subunit (Escherichia coli (strain K12), UniProt P0A6G7); assay: Agonist activity at Escherichia coli ClpP using alpha-casein as substrate assessed as substrate hydrolysis preincubated for 15 mins followed by substrate addition and measured after 2 hrs by SDS-PAGE analysis
ATP-dependent Clp protease proteolytic subunit (Escherichia coli (strain K12), UniProt P0A6G7), sequence (P0A6G7 whole entry): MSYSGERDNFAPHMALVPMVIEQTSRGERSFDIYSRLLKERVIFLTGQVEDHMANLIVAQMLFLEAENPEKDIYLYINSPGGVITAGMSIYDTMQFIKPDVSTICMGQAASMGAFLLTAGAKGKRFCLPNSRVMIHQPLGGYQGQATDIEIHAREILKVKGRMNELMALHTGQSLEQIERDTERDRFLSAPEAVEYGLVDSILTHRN

[27] = target: T3, ATP-dependent Clp protease proteolytic subunit (Staphylococcus aureus (strain NCTC 8325)) (UniProt Q2G036); assay: Induction of thermal stabilization of Staphylococcus aureus ClpP extracted from Escherichia coli BL21 (DE3) cells assessed as change in melting temperature at 10 uM incubated for 10 mins by DSF analysis
T3 sequence (whole entry): T1 sequence (Q2G036 whole entry)

O=C1[C@H](Cc2cnc[nH]2)N2C(=O)CCN(C(=O)NCc3ccccc3)[C@H]2CN1Cc1cccc2ccccc12
EC50 [1]: 500 nM
MIC (Staphylococcus aureus [2]): > 128 µg/mL
logD at 24 h [3]: 3.09

NC[C@H]1O[C@H](O[C@H]2[C@H](O)[C@@H](O[C@H]3O[C@H](CO)[C@@H](O)[C@H](N)[C@H]3O)[C@H](N)C[C@@H]2N)[C@H](O)[C@@H](O)[C@@H]1O [KANAMYCIN]
MIC (Staphylococcus aureus [4]): > 128 µg/mL
MIC (Staphylococcus aureus [5]): > 128 µg/mL
MIC (Staphylococcus aureus [6]): > 128 µg/mL
MIC (Staphylococcus aureus [7]): 64 µg/mL (≈ 132 µM)
MIC (Staphylococcus aureus [8]): 64 µg/mL (≈ 132 µM)
MIC (Staphylococcus aureus [9]): > 128 µg/mL
MIC (Staphylococcus aureus [2]): 4 µg/mL (≈ 8.26 µM)
MIC (Staphylococcus aureus [10]): > 128 µg/mL
MIC (Staphylococcus aureus [11]): > 128 µg/mL
MIC (Staphylococcus aureus [12]): 2 µg/mL (≈ 4.13 µM)
MIC (Staphylococcus aureus [13]): > 128 µg/mL

CC[C@H]1OC(=O)[C@H](C)[C@@H](O[C@H]2C[C@@](C)(OC)[C@@H](O)[C@H](C)O2)[C@H](C)[C@@H](O[C@@H]2O[C@H](C)C[C@H](N(C)C)[C@H]2O)[C@](C)(O)C[C@@H](C)C(=O)[C@H](C)[C@@H](O)[C@]1(C)O [ERYTHROMYCIN]
MIC (Staphylococcus aureus [4]): > 128 µg/mL
MIC (Staphylococcus aureus [5]): 8 µg/mL (≈ 10.9 µM)
MIC (Staphylococcus aureus [6]): > 128 µg/mL
MIC (Staphylococcus aureus [7]): > 128 µg/mL
MIC (Staphylococcus aureus [8]): > 128 µg/mL
MIC (Staphylococcus aureus [9]): 1 µg/mL (≈ 1.36 µM)
MIC (Staphylococcus aureus [2]): 0.13 µg/mL (≈ 0.177 µM)
MIC (Staphylococcus aureus [10]): 8 µg/mL (≈ 10.9 µM)
MIC (Staphylococcus aureus [11]): > 128 µg/mL
MIC (Staphylococcus aureus [12]): 0.25 µg/mL (≈ 0.341 µM)
MIC (Staphylococcus aureus [13]): > 128 µg/mL

CCC[C@@H]1C[C@@H](C(=O)N[C@@H]([C@H]2O[C@H](SC)[C@H](O)[C@@H](O)[C@H]2O)[C@H](C)Cl)N(C)C1 [CLINDAMYCIN]
MIC (Staphylococcus aureus [4]): 128 µg/mL (≈ 301 µM)
MIC (Staphylococcus aureus [5]): 0.016 µg/mL (≈ 0.0376 µM)
MIC (Staphylococcus aureus [6]): > 128 µg/mL
MIC (Staphylococcus aureus [7]): 128 µg/mL (≈ 301 µM)
MIC (Staphylococcus aureus [8]): 128 µg/mL (≈ 301 µM)
MIC (Staphylococcus aureus [9]): 0.016 µg/mL (≈ 0.0376 µM)
MIC (Staphylococcus aureus [2]): 0.016 µg/mL (≈ 0.0376 µM)
MIC (Staphylococcus aureus [10]): 0.008 µg/mL (≈ 0.0188 µM)
MIC (Staphylococcus aureus [11]): > 128 µg/mL
MIC (Staphylococcus aureus [12]): 0.016 µg/mL (≈ 0.0376 µM)
MIC (Staphylococcus aureus [13]): 64 µg/mL (≈ 151 µM)

Cc1onc(-c2ccccc2)c1C(=O)N[C@@H]1C(=O)N2[C@@H]1SC(C)(C)[C@@H]2C(=O)O [OXACILLIN]
MIC (Staphylococcus aureus [4]): > 128 µg/mL
survival at 50 mg/kg (Staphylococcus aureus [14]): 56%
MIC (Staphylococcus aureus [5]): > 128 µg/mL
MIC (Staphylococcus aureus [6]): > 128 µg/mL
MIC (Staphylococcus aureus [7]): 0.25 µg/mL (≈ 0.623 µM)
MIC (Staphylococcus aureus [8]): 0.25 µg/mL (≈ 0.623 µM)
MIC (Staphylococcus aureus [9]): 32 µg/mL (≈ 79.7 µM)
MIC (Staphylococcus aureus [2]): 0.13 µg/mL (≈ 0.324 µM)
MIC (Staphylococcus aureus [10]): 0.25 µg/mL (≈ 0.623 µM)
MIC (Staphylococcus aureus [11]): > 128 µg/mL
MIC (Staphylococcus aureus [12]): 32 µg/mL (≈ 79.7 µM)
MIC (Staphylococcus aureus [13]): 64 µg/mL (≈ 159 µM)

C[C@@H]1C[C@H]2C(=O)OC[C@H](NC(=O)[C@H](Cc3cc(F)cc(F)c3)NC(=O)CCC3CCCCC3)C(=O)N3CCC[C@H]3C(=O)N3CCCC[C@H]3C(=O)N[C@@H](C)C(=O)N2C1
IC50 [15]: 3.7 µg/mL (≈ 4.63 µM)
selectivity ratio [16]: 9.3
MIC (Staphylococcus aureus [17]): 0.4 µg/mL (≈ 0.501 µM)

CC[C@H](C)[C@H]1C(=O)N([C@H](C)c2cccc3ccccc23)C[C@@H]2N(C(=O)NCCCC(F)(F)F)CCC(=O)N12
selectivity ratio [18]: 25
ΔTm [19]: 3 °C
MIC (Staphylococcus aureus [4]): 2 µg/mL (≈ 3.76 µM)
MIC (Staphylococcus aureus [5]): 1 µg/mL (≈ 1.88 µM)
selectivity ratio [20]: 27
MIC (Staphylococcus aureus [6]): 2 µg/mL (≈ 3.76 µM)
MIC (Staphylococcus aureus [7]): 1 µg/mL (≈ 1.88 µM)
EC50 [21]: 720 nM
Activity (Staphylococcus aureus [22]): Active
MIC (Staphylococcus aureus [8]): 1 µg/mL (≈ 1.88 µM)
EC50 [1]: 1200 nM
MIC (Staphylococcus aureus [9]): 2 µg/mL (≈ 3.76 µM)
EC50 [23]: > 100000 nM
selectivity ratio [24]: 29
EC50 [25]: 31400 nM
MIC (Staphylococcus aureus [2]): 2 µg/mL (≈ 3.76 µM)
MIC (Staphylococcus aureus [10]): 1 µg/mL (≈ 1.88 µM)
EC50 [26]: > 100000 nM
MIC (Staphylococcus aureus [11]): 2 µg/mL (≈ 3.76 µM)
MIC (Staphylococcus aureus [12]): 1 µg/mL (≈ 1.88 µM)
ΔTm [27]: 13 °C
MIC (Staphylococcus aureus [13]): 2 µg/mL (≈ 3.76 µM)

O=C1C2=C(CCN(Cc3ccccc3)C2)N2CCN=C2N1Cc1ccc(C(F)(F)F)cc1
selectivity ratio [18]: 0.04
ΔTm [19]: 23.5 °C
MIC (Staphylococcus aureus [4]): 0.5 µg/mL (≈ 1.14 µM)
MIC (Staphylococcus aureus [5]): 0.5 µg/mL (≈ 1.14 µM)
selectivity ratio [20]: 0.1
MIC (Staphylococcus aureus [6]): 1 µg/mL (≈ 2.27 µM)
IC50 [15]: 0.002 µg/mL (≈ 0.00454 µM)
MIC (Staphylococcus aureus [7]): 0.5 µg/mL (≈ 1.14 µM)
EC50 [21]: 720 nM
MIC (Staphylococcus aureus [8]): 0.5 µg/mL (≈ 1.14 µM)
EC50 [1]: 1200 nM
MIC (Staphylococcus aureus [9]): 0.5 µg/mL (≈ 1.14 µM)
EC50 [23]: 1140 nM
selectivity ratio [24]: 0.06
EC50 [25]: 1900 nM
MIC (Staphylococcus aureus [2]): 0.002 µg/mL (≈ 0.00454 µM)
MIC (Staphylococcus aureus [10]): 0.5 µg/mL (≈ 1.14 µM)
EC50 [26]: 3970 nM
MIC (Staphylococcus aureus [11]): 0.5 µg/mL (≈ 1.14 µM)
MIC (Staphylococcus aureus [12]): 0.25 µg/mL (≈ 0.568 µM)
ΔTm [27]: 15.9 °C
MIC (Staphylococcus aureus [13]): 1 µg/mL (≈ 2.27 µM)
